Experimental data reported in patent US4684647A, “Anti-bacterial pyrido-benzothiazine derivative and pharmaceutical composition therefor” (priority 1984, dated 1987).
Converted amounts (≈) assume the structure as drawn.

Key:
[1] = test system: Pseudomonas aeruginosa; experiment: MIC in agar, Pseudomonas aeruginosa; type: cell-based; settings: Isosensitest agar, 10^4 CFU, 24 h, 37° C., read-out: MIC, B = Pseudomonas aeruginosa
Experimental: (§1) The antibacterial activity (minimum inhibiting concentration, MIC) of the compounds according to the invention has been determined in agar, by adding the compound under evaluation at concentrations of from 0.1 to 100 meg/ml by means of a "multipoint inoculator" (Denley Techn. Ltd., England); the medium used was Isosensitest agar (Oxoid); the bacterial inoculate was 10^4 colony forming unity (CFU) per inoculation point. The reading of the results was done after 24 hour-incubation in thermostat at 37° C.
(§2) The MIC was defined as the lowest concentration of chemotherapeutic agent still capable of totally inhibiting the growth of bacteria, as detected from a lack of colony development in the inoculation point.
(§3) The microorganisms used for evaluating the activity of the specific compounds have been: Escherichia coli, Klebsiella P., Enterobacter, Serratia, Citrobacter, Proteus (+), Salmonella, Pseudomonas, Staphylococcus. All the compounds according to the present invention are provided with antibacterial activity against one or more microorganism(s) among those above mentioned. Some of such compounds are absorbed after having been administered orally to the animals, and are particularly useful as disinfectants of the urinary tract in that they are excreted in a high percentage (50-70% over 24 hours after the administration of 50 mg/kg per os) as such, and in metabolic active form, through the urine.
B = P udomonas aeruginosa

[2] = test system: Citrobacter; experiment: MIC in agar, Citrobacter; type: cell-based; settings: Isosensitest agar, 10^4 CFU, 24 h, 37° C., read-out: MIC, G = Citrobacter
Experimental: as §1, §2, §3

[3] = test system: bacteria; experiment: antibacterial activity in vitro, overall; type: cell-based; settings: for anti-bacterial activity in vitro: Table 1; for activity with chlorine instead of fluorine in the X-position: comparison with (a), (c), (p)
Experimental: as §1, §2, §3

[4] = test system: Klebsiella pneumoniae; experiment: MIC in agar, Klebsiella pneumoniae; type: cell-based; settings: Isosensitest agar, 10^4 CFU, 24 h, 37° C., read-out: MIC, E = Klebsiella pneumoniae
Experimental: as §1, §2, §3
E = Klebsiella pneumoniae

[5] = test system: Enterobacter; experiment: MIC in agar, Enterobacter; type: cell-based; settings: Isosensitest agar, 10^4 CFU, 24 h, 37° C., read-out: MIC, F = Enterobacter
Experimental: as §1, §2, §3

[6] = test system: Proteus Morgani (indole +); experiment: MIC in agar, Proteus Morgani (indole +); type: cell-based; settings: Isosensitest agar, 10^4 CFU, 24 h, 37° C.; read-out: MIC, D = Proteus Morgani (indole +)
Experimental: as §1, §2, §3
D = Proteus Morgani (indole +)

[7] = test system: Escherichia coli (981); experiment: MIC in agar, Escherichia coli (981); type: cell-based; settings: Isosensitest agar, 10^4 CFU, 24 h, 37° C.
Experimental: as §1, §2, §3
A = Escherichia coli (981)

[8] = test system: Staphylococcus aureus; experiment: MIC in agar, Staphylococcus aureus; type: cell-based; settings: Isosensitest agar, 10^4 CFU, 24 h, 37° C.
Experimental: as §1, §2, §3

[9] = in vivo; settings: rat, po
Experimental: In Table 4 the percentage of urinary excretion of compound (h) is reported, as measured in the 24 hours successive to oral administration of the same to rats.
Each value is the average of three tested rats.
The tests have been performed in comparison with Ofloxacin, a well known antibacterial compound. The amount of excreted product has been determined with microbiological analysis, by using Klebsiella Pneumoniae as the testing microorganism.

[10] = pharmacokinetic test, absorption; type: in vivo

Row | dose excreted at 24 h ([9]; 20 mg/kg) | dose excreted at 24 h ([9]; 50 mg/kg) | SMILES | MIC [1] | MIC [2] | anti-bacterial activity in vitro [3] | MIC [4] | MIC [5] | MIC [6] | MIC [7] | MIC [8] | activity with chlorine instead of fluorine in the X-position [3] | absorption [10]
1 | – | – | O=C(O)c1cn2c3c(c(N4CCN(C(=O)C(F)(F)F)CC4)c(F)cc3c1=O)SCC2 [(l)] | 12.5 µg/mL (≈ 28.1 µM) | 0.39 µg/mL (≈ 0.876 µM) | very good and comparable anti-bacterial activity | < 0.39 µg/mL | < 0.39 µg/mL | 1.56 µg/mL (≈ 3.5 µM) | < 0.39 µg/mL | 1.56 µg/mL (≈ 3.5 µM) | – | –
2 | – | – | O=C(O)c1cn2c3c(c(Cl)c(Cl)cc3c1=O)SCC2 [Comparison (b), reference compound] | > 50 µg/mL | > 50 µg/mL | – | 12.5 µg/mL (≈ 39.5 µM) | > 50 µg/mL | 6.25 µg/mL (≈ 19.8 µM) | > 50 µg/mL | 0.78 µg/mL (≈ 2.47 µM) | strongly reduced | –
3 | – | – | CC1CSc2c(N3CCN(C)CC3)c(Cl)cc3c(=O)c(C(=O)O)cn1c23 (centres unmarked) [Comparison (q), reference compound] | > 12.5 µg/mL | – | – | 12.5 µg/mL (≈ 31.7 µM) | > 50 µg/mL | – | > 50 µg/mL | 3.12 µg/mL (≈ 7.92 µM) | strongly reduced | –
4 | – | – | O=C(O)c1cn2c3c(c(N4CCN(CC(F)(F)F)CC4)c(F)cc3c1=O)SCC2 [(i)] | > 50 µg/mL | 12.5 µg/mL (≈ 29 µM) | – | > 50 µg/mL | > 50 µg/mL | > 50 µg/mL | > 50 µg/mL | 0.39 µg/mL (≈ 0.904 µM) | – | –
5 | – | – | O=C(O)c1cn2c3c(c(N4CCCC4)c(F)cc3c1=O)S(=O)(=O)CC2 [(f), 9-fluoro-10-(1-pyrrolidinyl)-7-oxo-2,3-dihydro-7H-pyrido[1,2,3 de][1,4]benzothiazine-1,1-dioxido-6-carboxylic acid] | > 50 µg/mL | 25 µg/mL (≈ 68.2 µM) | – | 25 µg/mL (≈ 68.2 µM) | 25 µg/mL (≈ 68.2 µM) | > 50 µg/mL | 3.12 µg/mL (≈ 8.52 µM) | 3.12 µg/mL (≈ 8.52 µM) | – | –
6 | – | – | CC1CN(c2c(F)cc3c(=O)c(C(=O)O)cn4c3c2SCC4)CC(C)N1 (centres unmarked) [(m)] | 100 µg/mL (≈ 265 µM) | 12.5 µg/mL (≈ 33.1 µM) | – | 6.25 µg/mL (≈ 16.6 µM) | 3.12 µg/mL (≈ 8.27 µM) | 25 µg/mL (≈ 66.2 µM) | 6.25 µg/mL (≈ 16.6 µM) | 3.12 µg/mL (≈ 8.27 µM) | – | –
7 | 61 ± 4.58% | 54.5 ± 5.29% | CC1COc2c(N3CCN(C)CC3)c(F)cc3c(=O)c(C(=O)O)cn1c23 (centres unmarked) [Ofloxacin, reference compound] | – | – | – | – | – | – | – | – | – | –
8 | – | – | O=C(O)c1cn2c3c(c(N4CCNCC4)c(F)cc3c1=O)SCC2 [(g)] | 12.5 µg/mL (≈ 35.8 µM) | 0.78 µg/mL (≈ 2.23 µM) | very good and comparable anti-bacterial activity | < 0.39 µg/mL | < 0.39 µg/mL | 1.56 µg/mL (≈ 4.46 µM) | 0.39 µg/mL (≈ 1.12 µM) | 0.78 µg/mL (≈ 2.23 µM) | – | –
9 | – | – | O=C(O)c1cn2c3c(c(N4CCCC4)c(F)cc3c1=O)[S+]([O-])CC2 (centres unmarked) [(e)] | > 50 µg/mL | 50 µg/mL (≈ 143 µM) | – | 25 µg/mL (≈ 71.4 µM) | 50 µg/mL (≈ 143 µM) | > 50 µg/mL | 12.5 µg/mL (≈ 35.7 µM) | 12.5 µg/mL (≈ 35.7 µM) | – | –
10 | – | – | CC1CSc2c(F)c(F)cc3c(=O)c(C(=O)O)cn1c23 (centres unmarked) [(o), 9,10-difluoro-3-methyl-7-oxo-2,3-dihydro-7H-pyrido[1,2,3 de][1,4]benzothiazine-6-carboxylic acid] | – | – | very good and comparable anti-bacterial activity | – | – | – | – | – | – | –
11 | – | – | O=C(O)c1cn2c3c(c(N4CCCC4)c(Cl)cc3c1=O)SCC2 [Comparison (d), reference compound] | > 50 µg/mL | > 50 µg/mL | – | 12.5 µg/mL (≈ 35.6 µM) | > 50 µg/mL | 3.12 µg/mL (≈ 8.89 µM) | > 50 µg/mL | 0.78 µg/mL (≈ 2.22 µM) | strongly reduced | –
12 | – | – | CC1CSc2c(N3CCNCC3)c(F)cc3c(=O)c(C(=O)O)cn1c23 (centres unmarked) [(r)] | 12.5 µg/mL (≈ 34.4 µM) | – | very good and comparable anti-bacterial activity | < 0.39 µg/mL | < 0.39 µg/mL | – | 0.78 µg/mL (≈ 2.15 µM) | 0.78 µg/mL (≈ 2.15 µM) | – | –
13 | – | – | O=C(O)c1cn2c3c(c(N4CCCC4)c(F)cc3c1=O)SCC2 [(c)] | 3.12 µg/mL (≈ 9.33 µM) | 25 µg/mL (≈ 74.8 µM) | very good and comparable anti-bacterial activity | 1.56 µg/mL (≈ 4.67 µM) | 1.56 µg/mL (≈ 4.67 µM) | 3.12 µg/mL (≈ 9.33 µM) | 1.56 µg/mL (≈ 4.67 µM) | < 0.39 µg/mL | – | –
14 | – | – | CC1CSc2c(Cl)c(F)cc3c(=O)c(C(=O)O)cn1c23 (centres unmarked) [(n), 9-fluoro-10-chloro-3-methyl-7-oxo-2,3-dihydro-7H-pyrido[1,2,3 de][1,4]benzothiazine-6-carboxylic acid] | 25 µg/mL (≈ 79.7 µM) | – | very good and comparable anti-bacterial activity | 0.78 µg/mL (≈ 2.49 µM) | 0.39 µg/mL (≈ 1.24 µM) | – | 0.39 µg/mL (≈ 1.24 µM) | 0.39 µg/mL (≈ 1.24 µM) | – | –
15 | – | – | O=C(O)c1cn2c3c(c(Cl)c(F)cc3c1=O)SCC2 [(a), 9-fluoro-10-chloro-7-oxo-2,3-dihydro-7H-pyrido[1,2,3de][1,4]benzothiazine-6-carboxylic acid] | > 25 µg/mL | 0.78 µg/mL (≈ 2.6 µM) | very good and comparable anti-bacterial activity | 0.78 µg/mL (≈ 2.6 µM) | 0.39 µg/mL (≈ 1.3 µM) | 1.56 µg/mL (≈ 5.21 µM) | 0.39 µg/mL (≈ 1.3 µM) | 0.39 µg/mL (≈ 1.3 µM) | – | not at all absorbed
16 | – | – | CC1CSc2c(N3CCN(C)CC3)c(F)cc3c(=O)c(C(=O)O)cn1c23 (centres unmarked) [(p)] | 50 µg/mL (≈ 132 µM) | – | very good and comparable anti-bacterial activity | < 0.39 µg/mL | < 0.39 µg/mL | – | 0.78 µg/mL (≈ 2.07 µM) | 0.78 µg/mL (≈ 2.07 µM) | – | –
